Assay results taken from publication PMC4281105 (Journal of medicinal chemistry, 2014).
≈ marks a conversion by molar mass, not a printed value. Read-outs that look alike come from different tables or passages of the source.

Tests used:
[1] = for Pe, PAMPA permeability: PBS, no additives
RSV = test: viral titer; type: cell-based, human respiratory syncytial virus; conditions: for log reduction at 10 µM: human respiratory syncytial virus, read-out: viral titer reduction at 10 µM
[2] = not given; remark: listed apart in the source
[3] = tested on: Fa2N-4 immortalized human hepatocytes; conditions: read-out: hepatocyte toxicity LC50
hRSV strain Long = test: hRSV CPE assay; type: cell-based, human respiratory syncytial virus
recMeV-luciferase = recMeV-luciferase assay; type: cell-based, measles virus; conditions: luciferase readout, reporter interference control
recRSV-luciferase = recRSV-luciferase assay; type: cell-based, respiratory syncytial virus; conditions: luciferase readout
[4] = biological target: calcium channel, L-type, dihydropyridine (Rattus norvegicus, UniProt P22002); test: Panlabs 214600 radioligand binding; conditions: read-out: % Inh.
[5] = biological target: calcium channel, L-type, benzothiazepine (Rattus norvegicus, UniProt P22002); test: biochemical; conditions: read-out: % Inh.
[6] = human respiratory syncytial virus, HEp-2, read-out: RSV CPE potency ± standard deviation EC50, HEp-2 cells, hRSV strain Long, 10-point dose response

calcium channel, L-type, benzothiazepine, sequence (P22002 whole entry): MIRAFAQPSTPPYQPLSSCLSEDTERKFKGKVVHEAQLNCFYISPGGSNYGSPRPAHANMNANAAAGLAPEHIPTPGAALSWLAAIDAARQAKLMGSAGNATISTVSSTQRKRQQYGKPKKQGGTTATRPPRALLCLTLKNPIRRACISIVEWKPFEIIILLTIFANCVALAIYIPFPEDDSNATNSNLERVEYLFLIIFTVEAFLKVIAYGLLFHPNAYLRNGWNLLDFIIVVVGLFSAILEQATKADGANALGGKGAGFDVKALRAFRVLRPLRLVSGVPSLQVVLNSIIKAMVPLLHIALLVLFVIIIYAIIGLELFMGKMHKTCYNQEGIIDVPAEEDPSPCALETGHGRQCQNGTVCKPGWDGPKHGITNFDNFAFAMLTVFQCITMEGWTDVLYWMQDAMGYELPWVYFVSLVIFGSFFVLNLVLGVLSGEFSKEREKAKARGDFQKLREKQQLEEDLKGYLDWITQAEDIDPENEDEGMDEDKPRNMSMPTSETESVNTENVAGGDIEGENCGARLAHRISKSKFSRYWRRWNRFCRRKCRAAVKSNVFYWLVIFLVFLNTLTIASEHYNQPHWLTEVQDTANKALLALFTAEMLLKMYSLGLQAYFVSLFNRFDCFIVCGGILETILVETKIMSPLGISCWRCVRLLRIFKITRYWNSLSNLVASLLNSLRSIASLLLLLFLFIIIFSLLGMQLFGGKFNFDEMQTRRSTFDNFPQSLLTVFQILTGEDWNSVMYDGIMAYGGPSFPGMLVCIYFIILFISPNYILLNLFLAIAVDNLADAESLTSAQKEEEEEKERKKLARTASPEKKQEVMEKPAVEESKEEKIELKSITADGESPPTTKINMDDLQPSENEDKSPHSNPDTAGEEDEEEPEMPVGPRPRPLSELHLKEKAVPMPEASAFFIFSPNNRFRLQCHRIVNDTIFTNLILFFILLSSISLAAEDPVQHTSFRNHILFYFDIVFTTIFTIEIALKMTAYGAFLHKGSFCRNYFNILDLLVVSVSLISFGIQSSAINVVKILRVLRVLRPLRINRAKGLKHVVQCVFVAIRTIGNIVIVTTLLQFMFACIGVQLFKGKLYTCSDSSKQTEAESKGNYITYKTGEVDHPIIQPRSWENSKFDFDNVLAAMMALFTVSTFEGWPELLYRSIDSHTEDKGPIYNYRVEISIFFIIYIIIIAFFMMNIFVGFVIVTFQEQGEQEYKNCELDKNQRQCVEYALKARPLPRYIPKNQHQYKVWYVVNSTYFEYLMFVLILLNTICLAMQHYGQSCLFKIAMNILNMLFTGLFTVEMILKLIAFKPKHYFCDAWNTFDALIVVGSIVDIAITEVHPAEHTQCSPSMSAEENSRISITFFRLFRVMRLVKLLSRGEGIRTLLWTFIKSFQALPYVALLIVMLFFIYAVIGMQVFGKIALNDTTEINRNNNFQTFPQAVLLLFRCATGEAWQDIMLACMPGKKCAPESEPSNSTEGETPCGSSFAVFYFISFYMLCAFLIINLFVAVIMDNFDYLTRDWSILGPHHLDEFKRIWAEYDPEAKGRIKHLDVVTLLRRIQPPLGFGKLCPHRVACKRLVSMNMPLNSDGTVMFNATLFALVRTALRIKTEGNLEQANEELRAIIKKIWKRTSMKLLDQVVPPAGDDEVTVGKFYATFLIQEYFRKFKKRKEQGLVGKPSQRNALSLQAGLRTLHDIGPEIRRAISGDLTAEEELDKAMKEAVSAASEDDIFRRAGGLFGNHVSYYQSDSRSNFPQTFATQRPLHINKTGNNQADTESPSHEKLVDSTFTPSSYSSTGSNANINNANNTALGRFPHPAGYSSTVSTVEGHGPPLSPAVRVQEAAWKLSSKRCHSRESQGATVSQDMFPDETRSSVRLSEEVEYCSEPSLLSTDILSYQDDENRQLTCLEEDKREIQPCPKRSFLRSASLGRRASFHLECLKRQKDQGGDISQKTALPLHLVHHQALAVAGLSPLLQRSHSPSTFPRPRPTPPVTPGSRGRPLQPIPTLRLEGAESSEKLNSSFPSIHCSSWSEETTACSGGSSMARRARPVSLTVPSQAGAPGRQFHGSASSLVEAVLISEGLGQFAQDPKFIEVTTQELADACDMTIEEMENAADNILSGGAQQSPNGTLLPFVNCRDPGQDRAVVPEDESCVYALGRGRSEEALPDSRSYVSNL
calcium channel, L-type, dihydropyridine, sequence (P22002 whole entry): as above

EC50 (hRSV strain Long; [6]) [nM]	Structure (SMILES)	log reduction at 10 µM (RSV)	other results
900 ± 200	COCCCNC(=O)c1ccc(Cn2c(=O)c3ccccc3n(Cc3ccc(Br)cc3)c2=O)cc1 [Compound 10, 4-((1-(4-Bromobenzyl)-2,4-dioxo-1,2-dihydroquinazolin-3(4H)-yl)methyl)-N-(3-methoxypropyl)benzamide]	4.1	
2000 ± 900	COCCCNC(=O)c1ccc(Cn2c(=O)c3ccccc3n(Cc3ccc(OC)cc3)c2=O)cc1 [Compound 14, 4-((1-(4-Methoxybenzyl)-2,4-dioxo-1,2-dihydroquinazolin-3(4H)-yl)methyl)-N-(3-methoxypropyl)benzamide]	2.7	
1000 ± 40	Cc1ccc(Cn2c(=O)n(Cc3ccc(C(=O)Nc4ccncc4)cc3)c(=O)c3ccccc32)cc1 [Compound 42, 4-((1-(4-Methylbenzyl)-2,4-dioxo-1,2-dihydroquinazolin-3(4H)-yl)methyl)-N-(pyridin-4-yl)benzamide]	3.5	
1200 ± 100	CC(C)c1ccc(Cn2c(=O)n(Cc3ccc(C(=O)NCc4ccco4)cc3)c(=O)c3ccccc32)cc1 [Compound 48, N-(Furan-2-ylmethyl)-4-((1-(4-isopropylbenzyl)-2,4-dioxo-1,2-dihydroquinazolin-3(4H)-yl)methyl)benzamide]	2.8	

Second part, the molecule before the results:

Structure (SMILES)	EC50 (hRSV strain Long; [6]) [nM]	log reduction at 10 µM (RSV)	other results
CN(C)c1ccc(Cn2c(=O)n(Cc3ccc(C(=O)NCC4COC4)cc3)c(=O)c3ccccc32)cc1 [Compound 46, 4-((1-(4-(dimethylamino)benzyl)-2,4-dioxo-1,2-dihydroquinazolin-3(4H)-yl)methyl)-N-(oxetan-3-ylmethyl)-benzamide]			passive permeability in words ([1]; at each of 3 pH levels): Moderate to good; Pe, PAMPA permeability ([1]; donor pH 5.0, acceptor pH 7.4): 780 ×10⁻⁶ cm/s; Pe, PAMPA permeability ([1]; donor pH 6.2, acceptor pH 7.4): 686 ×10⁻⁶ cm/s; Pe, PAMPA permeability ([1]; donor pH 7.4, acceptor pH 7.4): 514 ×10⁻⁶ cm/s; viral titer reduction at 10 µM (RSV; compound at 10 µM): >6.2 log; aqueous stability, 1:1 PBS/ACN (percent parent remaining after 48 h in 1:1 PBS and acetonitrile): 100%; aqueous stability, PBS (percent parent remaining after 48 h in PBS): 90.2%; solubility, PBS ([2]; kinetic solubility in 1× PBS, pH 7.4): 11.2 µM (≈ 5.58 µg/mL); solubility, media ([2]; kinetic solubility in CPE assay media (DMEM/F12, Pen/Strep/Glutamine, 2% heat inactivated FBS)): 18.5 µM (≈ 9.22 µg/mL); CC50 [3]: > 50000 nM; selectivity index (CC50/EC50) (hRSV strain Long; HEp-2 CC50 / RSV CPE EC50): 41.8; EC50 (hRSV strain Long; read-out: RSV CPE potency ± standard deviation EC50, HEp-2 cells, hRSV strain Long, 10-point dose response): 1100 ± 200 nM
COCCCNC(=O)c1ccc(Cn2c(=O)c3ccccc3n(Cc3ccc(C(C)C)cc3)c2=O)cc1 [Compound 19, 4-((1-(4-isopropylbenzyl)-2,4-dioxo-1,2-dihydroquinazolin-3(4H)-yl)methyl)-N-(3-methoxypropyl)benzamide]	300 ± 30	6.7	activity against recMeV-luciferase (recMeV-luciferase): inactive; inhibition of recRSV-luciferase (recRSV-luciferase): efficiently inhibited; inhibition at 10 µM [4]: 70%; inhibition at 10 µM [5]: 52%; EC50 (hRSV strain Long; human respiratory syncytial virus, RSV CPE, as given in abstract): 300 to 500 nM
Cc1ccc(Cn2c(=O)n(Cc3ccc(C(=O)NC(C)(C)C)cc3)c(=O)c3ccccc32)cc1 [Compound 36, N-(tert-Butyl)-4-((1-(4-methylbenzyl)-2,4-dioxo-1,2-dihydroquinazolin-3(4H)-yl)methyl)benzamide]	700 ± 30	5.5	
COCCCNC(=O)c1ccc(Cn2c(=O)c3ccccc3n(Cc3cccnc3)c2=O)cc1 [Compound 23, 4-((2,4-Dioxo-1-(pyridin-3-ylmethyl)-1,2-dihydroquinazolin-3(4H)-yl)methyl)-N-(3-methoxypropyl)benzamide]	> 50000	0.9	
Cc1ccc(Cn2c(=O)n(Cc3ccc(C(=O)NCC4CCC4)cc3)c(=O)c3ccccc32)cc1 [Compound 30, N-(Cyclobutylmethyl)-4-((1-(4-methylbenzyl)-2,4-dioxo-1,2-dihydroquinazolin-3(4H)-yl)methyl)benzamide]	1000 ± 80	1.2	
COCCCNC(=O)c1ccc(Cn2c(=O)c3ccccc3n(Cc3ccc4nonc4c3)c2=O)cc1 [Compound 20, 4-((1-(Benzo[c][1,2,5]oxadiazol-5-ylmethyl)-2,4-dioxo-1,2-dihydroquinazolin-3(4H)-yl)methyl)-N-(3-methoxypropyl)benzamide]	4900 ± 700	2.1	
